Measured values taken from article doi:10.1101/2021.06.16.448762v1 (biorxiv, 2021).

B1: AtNAD-MEα/β (Arabidopsis thaliana) (protein)
chain 1: PTIVHKQGLDILHDPWFNKGTAFTMTERNRLDLRGLLPPNVMDSEQQIFRFMTDLKRLEEQARDGPSDPNALAKWRILNRLHDRNETMYYKVLINNIEEYAPIVYTPTVGLVCQNYSGLFRRPRGMYFSAEDRGEMMSMVYNWPAEQVDMIVVTDGSRILGLGDLGVHGIGIAVGKLDLYVAAAGINPQRVLPVMIDVGTNNEKLRNDPMYLGLQQRRLEDDDYIDVIDEFMEAVYTRWPHVIVQFEDFQSKWAFKLLQRYRCTYRMFNDDVQGTAGVAIAGLLGAVRAQGRPMIDFPKMKIVVAGAGSAGIGVLNAARKTMARMLGNTETAFDSAQSQFWVVDAQGLITEGRENIDPEAQPFARKTKEMERQGLKEGATLVEVVREVKPDVLLGLSAVGGLFSKEVLEAMKGSTSTRPAIFAMSNPTKNAECTPQDAFSILGENMIFASGSPFKNVEFGNGHVGHCNQGNNMYLFPGIGLGTLLSGAPIVSDGMLQAASECLAAYMSEEEVLEGIIYPPISRIRDITKRIAAAVIKEAIEEDLVEGYREMDAREIQKLDEEGLMEYVENNMWNPEYPTLVYKDD
chain 2: CIVHKRGADILHDPWFNKDTGFPLTERDRLGIRGLLPPRVMTCVQQCDRFIESFRSLENNTKGEPENVVALAKWRMLNRLHDRNETLYYRVLIDNIKDFAPIIYTPTVGLVCQNYSGLYRRPRGMYFSAKDKGEMMSMIYNWPAPQVDMIVITDGSRILGLGDLGVQGIGIPIGKLDMYVAAAGINPQRVLPIMLDVGTNNEKLLQNDLYLGVRQPRLEGEEYLEIIDEFMEAAFTRWPKAVVQFEDFQAKWAFGTLERYRKKFCMFNDDVQGTAGVALAGLLGTVRAQGRPISDFVNQKIVVVGAGSAGLGVTKMAVQAVARMAGISESEATKNFYLIDKDGLVTTERTKLDPGAVLFAKNPAEIREGASIVEVVKKVRPHVLLGLSGVGGIFNEEVLKAMRESDSCKPAIFAMSNPTLNAECTAADAFKHAGGNIVFASGSPFENVELENGKVGHVNQANNMYLFPGIGLGTLLSGARIVTDGMLQAASECLASYMTDEEVQKGILYPSINNIRHITAEVGAAVLRAAVTDDIAEGHGDVGPKDLSHMSKEDTVNYITRNMWFPVYSPLVHEK

Legend:
ThNAD-MEα/β2 = test: NADH formation at […] nm; type: biochemical, Tarenaya hassleriana; conditions: read-out: Km malate; 4 mM NAD, 10 mM MnCl2, MES pH 6.2-6.4
GgNAD-MEα/β2 = test: NADH formation at […] nm; type: biochemical, Gynandropsis gynandra; conditions: read-out: Km malate; no aspartate; 4 mM NAD, 10 mM MnCl2, MES pH 6.2-6.4
ThNAD-MEα/β1 = test: NADH formation at […] nm; type: biochemical, Tarenaya hassleriana; conditions: read-out: Km malate; 4 mM NAD, 10 mM MnCl2, MES pH 6.2-6.4
ThNAD-MEβ1 = test: NADH formation at […] nm; type: biochemical, Tarenaya hassleriana; conditions: read-out: Km malate; 4 mM NAD, 10 mM MnCl2, MES pH 6.2-6.4
GgNAD-MEα = test: NADH formation at […] nm; type: biochemical, Gynandropsis gynandra; conditions: read-out: Km malate; 4 mM NAD, 10 mM MnCl2, MES pH 6.2-6.4
ThNAD-MEβ2 = test: NADH formation at […] nm; type: biochemical, Tarenaya hassleriana; conditions: read-out: Km malate; 4 mM NAD, 10 mM MnCl2, MES pH 6.2-6.4
ThNAD-MEα = test: NADH formation at […] nm; type: biochemical, Tarenaya hassleriana; conditions: read-out: Km malate; 4 mM NAD, 10 mM MnCl2, MES pH 6.2-6.4
GgNAD-MEβ2 = test: NADH formation at […] nm; type: biochemical, Gynandropsis gynandra; conditions: read-out: Km malate; no aspartate; 4 mM NAD, 10 mM MnCl2, MES pH 6.2-6.4
purified protein = substrate: O=C(O)C[C@H](O)C(=O)O; test: purified protein; conditions: no aspartate; 4 mM NAD, 10 mM MnCl2, MES pH 6.2-6.4; pH 6.0

Row | Molecule | Km (ThNAD-MEα/β2) | Km (GgNAD-MEα/β2) | Km (ThNAD-MEα/β1) | Km (ThNAD-MEβ1) | Km (GgNAD-MEα) | Km (ThNAD-MEβ2) | Km (ThNAD-MEα) | Km (GgNAD-MEβ2) | Km (purified protein) | kcat (purified protein)
1 | O=C(O)C[C@H](O)C(=O)O [malate] | 3.4 ± 1 mM | 3.5 ± 0.5 mM | 6.6 ± 1.6 mM | 9.2 ± 2.3 mM | 3.1 ± 0.4 mM | 6.8 ± 1.7 mM | 5.4 ± 1.3 mM | 2.6 ± 1 mM |  | 
2 | B1 |  |  |  |  |  |  |  |  | 3.2 ± 0.4 mM | 30.7 ± 2.0 s⁻¹
